Patent US5654280A, “Pharmaceutical composition” (Perstorp AB, priority 1989, dated 1997)
Structures can show the parent of a compound that is named as a salt.

Legend:
[1] = target: membrane preparation from rat hearts (binding sites of D-myo-inositol-1,2,6-triphosphate); assay: Displacement of tritiated D-myo-inositol-1,2,6-triphosphate from rat heart membrane preparation; details: rat heart membranes, 60 minutes in ice, 50 mM HEPES pH 7.4
Protocol: A membrane preparation for binding experiments was prepared at 4° C. Remaining blood was removed from fresh rats hearts (approx. 25 g) and the hearts were minced on chilled plates and blended thoroughly with 20 volumes (v/w) of 0.32M sucrose. The mixture was homogenized using a glass homogenizer followed by centrifugation at 800 g for 10 minutes. The supernatant was thereafter recentrifuged at 21000 g for 20 minutes. The resulting pellets were suspended in 20 volumes of ice cold water before homogenization and centrifugation. The supernatant was collected by pipetting followed by recentrifugation. […]
The assay mixtures were incubated for 60 minutes in ice and binding reactions were terminated by centrifugation for 5 minutes. The surface of the pellets were washed with 1 ml of iced 50 mM HEPES buffer (pH 7.4) before measuring the incorporated radioactivity by means of a scintillation counter.
An IC50 value can be determined by calculation of the replacement ratio of the tritiated reference compound at different concentrations of the specific compound. This value represents the concentration needed to replace half the amount of the tritiated reference compound and is expressed as log (conc. of compound). […] Following the above described procedure the binding properties of 1,5-anhydro-D-arabinitol-2,3,4-trisphosphate was determined. […]

[2] = tested on: binding sites for phosphorylated compounds in membrane preparation from rat brains; assay: Displacement of tritiated D-myo-inositol-1,3,4,5-tetraphosphate (IP4) from rat brain membrane preparation; details: rat brain plasma membrane fragments saturated with tritiated IP4; remaining radioactivity after addition of compound and washing
From the text: A membrane preparation was obtained from rat brains in a way suitable to provide membrane fragments from plasma membranes. From earlier studies these membrane preparations are known to comprise binding sites for phosphorylated compounds. The physiological role of these binding sites are to regulate for example vascular leakage and oedema formation in the body. The degree of binding of a specific compound to these binding sites predicts the efficiency to counteract vascular leakage in vivo.
The membrane preparation was first saturated with a tritiated control compound. The control compound was D-myo-inositol-1,3,4,5-tetraphosphate (IP4). Addition of a further compound having, increased binding properties, compared to the control compound, will result in a replacement of the control compound and thus in a reduction of the radioactivity in the sample.
The 1,5-anhydro-D-arabinitol-2,3,4-trisphosphate pentakis (cyclohexylammonium) salt obtained in Example 2 was added to a membrane preparation as described above. After washing, the radioactivity was 30% compared to the control compound (IP4), thus showing a significant binding to the preparation.

| IC50 value (concentration needed to replace half the amount of the tritiated reference compound) [1] | radioactivity after washing compared to the control compound (IP4) [2] [%] | SMILES |
| --- | --- | --- |
| -6.9 log (conc. of compound) | – | O=P(O)(O)OC1[C@H](OP(=O)(O)O)COC[C@H]1OP(=O)(O)O [1,5-anhydro-D-arabinitol-2,3,4-trisphosphate] |
| – | 30 | O=P(O)(O)OC1[C@H](OP(=O)(O)O)COC[C@H]1OP(=O)(O)O [Example 2, 1,5-anhydro-D-arabinitol-2,3,4-trisphosphate pentakis (cyclohexylammonium) salt] |
